Key:
Assay in all cases: relative viability (nuclei count vs DMSO), 5 days (fraction); higher = more cells survive
[1] = compound: CCc1cnn2c(NCc3ccc[n+]([O-])c3)cc(N3CCCC[C@H]3CCO)nc12 [Dinaciclib] + NC(=O)Nc1cc(-c2cccc(F)c2)sc1C(=O)N[C@H]1CCCNC1 [AZD7762] (partner 0.2 µM)
Summary of the method: (§1)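 Lung cancer cell lines in 1536-well plates were dosed by pin tool the day after seeding, either with one drug alone or with a fixed anchor-drug dose plus five library-drug doses (not always all listed) in √10 steps. After 5 days, cells were fixed and their nuclei stained in one step (final 0.05% Triton X-100, 1% formaldehyde, 1 ug/ml Hoechst), then counted on 4× images. Relative viability is the nuclei count in treated wells divided by that in vehicle wells. Values are medians of duplicate plates.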

[2] = compound: CCc1cnn2c(NCc3ccc[n+]([O-])c3)cc(N3CCCC[C@H]3CCO)nc12 [Dinaciclib] + CC(=O)Nc1cccc(-n2c(=O)n(C3CC3)c(=O)c3c(Nc4ccc(I)cc4F)n(C)c(=O)c(C)c32)c1 [Trametinib] (partner 0.02 µM)
Summary of the method: as §1

[3] = compound: CCc1cnn2c(NCc3ccc[n+]([O-])c3)cc(N3CCCC[C@H]3CCO)nc12 [Dinaciclib] + CCNC(=O)c1noc(-c2cc(C(C)C)c(O)cc2O)c1-c1ccc(CN2CCOCC2)cc1 [Luminespib] (partner 0.01 µM)
Summary of the method: as §1

[4] = compound: CCc1cnn2c(NCc3ccc[n+]([O-])c3)cc(N3CCCC[C@H]3CCO)nc12 [Dinaciclib] + CC1(C)CCC(c2ccc(Cl)cc2)=C(CN2CCN(c3ccc(C(=O)NS(=O)(=O)c4ccc(N[C@H](CCN5CCOCC5)CSc5ccccc5)c(S(=O)(=O)C(F)(F)F)c4)cc3)CC2)C1 [Navitoclax] (partner 0.5 µM)
Summary of the method: as §1

[5] = compound: CCc1cnn2c(NCc3ccc[n+]([O-])c3)cc(N3CCCC[C@H]3CCO)nc12 [Dinaciclib] + Nc1ncn([C@H]2C[C@H](O)[C@@H](CO)O2)c(=O)n1 [Decitabine] (partner 2 µM)
Summary of the method: as §1

| Cell Line | relative viability ([1]; first compound 0.009487 µM) | relative viability ([1]; first compound 0.03 µM) | relative viability ([1]; first compound 0.09487 µM) | relative viability ([1]; first compound 0.3 µM) | relative viability ([2]; first compound 0.009487 µM) | relative viability ([2]; first compound 0.03 µM) | relative viability ([2]; first compound 0.09487 µM) | relative viability ([2]; first compound 0.3 µM) | relative viability ([3]; first compound 0.009487 µM) | relative viability ([3]; first compound 0.03 µM) | relative viability ([3]; first compound 0.09487 µM) | relative viability ([3]; first compound 0.3 µM) | relative viability ([4]; first compound 0.009487 µM) | relative viability ([4]; first compound 0.03 µM) | relative viability ([4]; first compound 0.09487 µM) | relative viability ([4]; first compound 0.3 µM) | relative viability ([5]; first compound 0.009487 µM) | relative viability ([5]; first compound 0.03 µM) | relative viability ([5]; first compound 0.09487 µM) | relative viability ([5]; first compound 0.3 µM) |
| --- | --- | --- | --- | --- | --- | --- | --- | --- | --- | --- | --- | --- | --- | --- | --- | --- | --- | --- | --- | --- |
| NCI-H441 | 1.17 | 0.758 | 0.141 | 0.16 | 0.42 | 0.156 | 0.137 | 0.114 | 0.262 | 0.18 | 0.177 | 0.193 | 0.655 | 0.11 | 0.135 | 0.128 | 0.223 | 0.199 | 0.134 | 0.147 |
| NCI-H460 | 0.795 | 0.0353 | 0.0383 | 0.0328 | 0.0986 | 0.0124 | 0.0166 | 0.0082 | 0.031 | 0.015 | 0.0141 | 0.0129 | 1.05 | 0.0119 | 0.0108 | 0.0098 | 0.232 | 0.0239 | 0.0139 | 0.0224 |
| NCI-H596 | 1.09 | 0.479 | 0.262 | 0.24 | 0.711 | 0.692 | 0.19 | 0.19 | 0.564 | 0.566 | 0.174 | 0.186 | 0.872 | 0.276 | 0.0498 | 0.09 | 1.48 | 0.839 | 0.271 | 0.258 |
| NCI-H647 | 0.274 | 0.0458 | 0.0377 | 0.0491 | 0.379 | 0.192 | 0.0855 | 0.0533 | 0.133 | 0.0786 | 0.049 | 0.0752 | 0.764 | 0.0454 | 0.0549 | 0.0648 | 0.296 | 0.131 | 0.0349 | 0.0773 |
| NCI-H727 | 0.716 | 0.413 | 0.356 | 0.34 | 0.39 | 0.324 | 0.324 | 0.392 | 0.404 | 0.253 | 0.301 | 0.282 | 0.37 | 0.0912 | 0.0827 | 0.0949 | 0.916 | 0.37 | 0.413 | 0.373 |
| NCI-H838 | 0.993 | 0.601 | 0.622 | 0.553 | 0.315 | 0.127 | 0.0741 | 0.0706 | 0.295 | 0.134 | 0.104 | 0.0905 | 0.901 | 0.226 | 0.13 | 0.118 | 0.337 | 0.162 | 0.131 | 0.138 |
| NCI-H1355 | 1.02 | 0.869 | 0.267 | 0.127 | 0.457 | 0.349 | 0.173 | 0.14 | 0.703 | 0.246 | 0.135 | 0.195 | 0.943 | 0.159 | 0.123 | 0.0999 | 0.364 | 0.321 | 0.174 | 0.157 |
| NCI-H1395 | 0.324 | 0.31 | 0.276 | 0.29 | 1.11 | 0.315 | 0.281 | 0.289 | 0.631 | 0.31 | 0.244 | 0.238 | 1.06 | 0.263 | 0.299 | 0.267 | 0.649 | 0.286 | 0.286 | 0.251 |

— the supplement of paper PMC10307832
